Measurements as given in publication PMC8838850, “Synthesis, Antimicrobial, Anti-Virulence and Anticancer Evaluation of New 5(4H)-Oxazolone-Based Sulfonamides” (Molecules, 2022).

How the values were obtained:
S. aureus = experiment: Assay of protease production (casein substrate); type: cell-based, Staphylococcus aureus; conditions: sub-MIC
Protocol: The effect of compounds 5, 7 and 10 on the production of protease was evaluated using casein substrate as described earlier. Briefly, overnight cultures of P. aeruginosa and S. aureus were cultivated in LB broth in the presence or absence of compounds 5, 7 and 10 at ½ MIC for 24 h at 37 °C. The supernatants were collected, mixed (1:1) with 0.05 M casein in phosphate buffer (2%) and NaOH (0.1 M) at pH 7.0, and incubated for 15 min at 37 °C. The reaction was stopped by adding 2 mL of 0.4 M trichloroacetic acid for 30 min at 25 °C. Any precipitates were removed, and the optical densities were detected at 660 nm. The assays were performed in triplicate and the obtained optical densities of tested strains treated with compounds 5, 7 and 10 were expressed as mean ± standard error of percentage change from untreated tested strains control (positive control) and LB (negative control). The protease inhibition percentages were calculated: (O.D control—O.D tested compounds)/O.D control.

SMILES	Production of protease (S. aureus)	melting point [°C]
Cc1ccc(S(=O)(=O)Nc2ccccc2C2=N/C(=C/c3ccccc3)C(=O)O2)cc1 [Compound 9a, (E)-N-(2-(4-Benzylidene-5-oxo-4,5-dihydrooxazol-2-yl)phenyl)-4-methylbenzenesulfonamide]	significantly reduced the production of protease	214 to 216
COc1ccc(/C=C2/N=C(c3ccccc3NS(=O)(=O)c3ccc(C)cc3)OC2=O)cc1 [Compound 9b, (E)-N-(2-(4-(4-Methoxybenzylidene)-5-oxo-4,5-dihydrooxazol-2-yl)phenyl)-4-methylbenzenesulfonamide]	significantly reduced the production of protease	
Cc1ccc(S(=O)(=O)Nc2ccccc2C2=N/C(=C/c3ccc([N+](=O)[O-])cc3)C(=O)O2)cc1 [Compound 9f, (E)-4-Methyl-N-(2-(4-(4-nitrobenzylidene)-5-oxo-4,5-dihydrooxazol-2-yl)phenyl)benzenesulfonamide]	significantly reduced the production of protease	250 to 252
